Values after ≈ are worked out from the molar mass of the structure shown.
Legend:
[1] = Measurement of solubility (Experimental Example 3); assay type: physicochemical; conditions: Phosphate buffer, room temperature, shaken 120 minutes
Description: The improved solubility of compound A by amorphization was observed.

[2] = physchem; conditions: thermodynamic from solid
[3] = Measurement of related substances by HPLC after storage in glass bottles (Experimental Example 4); assay type: physicochemical
Experimental: The solid dispersion of Example 1 and the amorphous form of compound A of Example 2 were put into glass bottles, and the bottles were allowed to stand under the predetermined conditions, after being sealed or without being sealed, and the amount of each related substance of compound A was measured by an HPLC method.
The measurement of related substances was carried out in accordance with the following conditions (the following tests for related substances were carried out in a similar fashion.): • As a HPLC column, Unison UK-Phenyl (particle size=3 μm, 4.6 mm (inner diameter)×25 cm, manufactured by Imtakt), or its equivalent, was used, and maintained at 40° C. • As mobile phase A, a mixed solution (4:1) of a perchlorate solution (pH 4.0) and methanol was used. • As mobile phase B, acetonitrile was used. • Sample solutions were prepared by diluting samples with a mixed solution of mobile phase A/mobile phase B (7:3) so that the concentration of compound A became 250 μg/mL. • Related substances were measured using an ultraviolet absorption spectrophotometer (wavelength: 225 nm), in accordance with the gradient program shown in Table 3 below, and at a flow rate in which the retention time of compound A was about 26 minutes. The percentage of the peak area of each related substance was calculated, as a percentage with respect to the total peak area of compound A and its related substances.

[4] = Powder X-ray diffraction test, crystallinity before and after storage (Experimental Example 5); assay type: physicochemical; conditions: at least 70° C. for 9 days, or 40° C., 75% RH for 1 month; FIG. 2
Experimental: The amorphous form of compound A of Example 2 was put into glass bottles, and the bottles were sealed and allowed to stand under the predetermined conditions, and the crystallinity before and after storage was evaluated using a powder X-ray diffraction method. In “40° C., 75% RH for 1 month (opened)”, the storage was carried out under the conditions where the bottle was not sealed.

[5] = Oral absorption test in dog (Experimental Example 6); assay type: in vivo; conditions: 50 mg of compound A
Experimental: The dogs were made to fast from the evening on the day before the administration (before more than 16 hours from the scheduled administration time) to the final blood collection on the day of the administration (24 hours after the administration). After the end of the final blood collection, food was given in accordance with the feeding amount of the breeding facility (the fasting period was from 24 hours or more to less than 48 hours). Water was not given during a time period from 30 minutes before the administration to 2 hours after the administration, and then, it was free to drink water.

[6] = glass bottle not sealed (*), 40° C., 75% RH for 1 month
[7] = glass bottle, sealed, 25° C., 60% RH for 1 month
[8] = glass bottle, sealed, 40° C., 75% RH for 1 month
[9] = glass bottle, sealed, 70° C. for 9 days

Structure (SMILES): C[C@@H](O)C(=N)NS(=O)(=O)c1cc(C(=O)C(C(=O)c2cc(F)ccc2F)=C2Nc3ccccc3N2)ccc1F [Compound A, (2R)—N-({5-[3-(2,5-difluorophenyl)-2-(1,3-dihydro-2H-benzimidazole-2-ylidene)-3-oxopropanoyl]-2-fluorophenyl}sulfonyl)-2-hydroxypropane imide amide]
- Solubility ([1]; pH 6.8, 0.10% Sodium lauryl sulfate, listed as Compound A in crystalline state): 69 µg/mL (≈ 127 µM)
- Solubility ([1]; pH 6.8, listed as Compound A in crystalline state): 15 µg/mL (≈ 27.5 µM)
- Solubility ([2]; pH 1.2, simulated gastric fluid): ~9.9 µg/mL (≈ 18.2 µM)
- Solubility ([2]; pH 6.8, aqueous buffer): ~9.8 µg/mL (≈ 18 µM)

Structure (SMILES): C[C@@H](O)C(=N)NS(=O)(=O)c1cc(C(=O)C(C(=O)c2cc(F)ccc2F)=C2Nc3ccccc3N2)ccc1F [Example 2, (2R)—N-({5-[3-(2,5-difluorophenyl)-2-(1,3-dihydro-2H-benzimidazole-2-ylidene)-3-oxopropanoyl]-2-fluorophenyl}sulfonyl)-2-hydroxypropane imide amide]
- Solubility ([1]; pH 6.8, 0.10% Sodium lauryl sulfate, listed as Ex. 2): 326 µg/mL (≈ 599 µM)
- Solubility ([1]; pH 6.8, listed as Ex. 2): 75 µg/mL (≈ 138 µM)
- Maximum related substance ([3]; At the beginning of storage): 0.80%
- Total amount of related substances ([3]; At the beginning of storage): 0.88%
- significant increase in related substances ([3]; at least 70° C. for 9 days, 40° C., 75% RH for 1 month, or 25° C., 60% RH for 1 month): not observed
- Maximum related substance [3, 6]: 0.77%
- Maximum related substance, increased amount from the beginning of the storage [3, 6]: (−0.03) %
- Total amount of related substances [3, 6]: 0.98%
- Total amount of related substances, increased amount from the beginning of the storage [3, 6]: (0.10) %
- Maximum related substance [3, 7]: 0.79%
- Maximum related substance, increased amount from the beginning of the storage [3, 7]: (−0.01) %
- Total amount of related substances [3, 7]: 0.99%
- Total amount of related substances, increased amount from the beginning of the storage [3, 7]: (0.11) %
- Maximum related substance [3, 8]: 0.79%
- Maximum related substance, increased amount from the beginning of the storage [3, 8]: (−0.01) %
- Total amount of related substances [3, 8]: 0.99%
- Total amount of related substances, increased amount from the beginning of the storage [3, 8]: (0.11) %
- Maximum related substance [3, 9]: 0.82%
- Maximum related substance, increased amount from the beginning of the storage [3, 9]: (0.02) %
- Total amount of related substances [3, 9]: 0.85%
- Total amount of related substances, increased amount from the beginning of the storage [3, 9]: (−0.03) %
- crystallinity after storage (powder X-ray diffraction) [4]: maintained the amorphous state alone
- AUC0-24 h ratio to the suspension of Example 2 [5]: 1.00
- Cmax ratio to the suspension of Example 2 [5]: 1.00
- oral absorbability [5]: good oral absorbability
- Cmax ([5]; plasma, suspension in 0.5% methylcellulose): 793 ± 165 ng/mL
- AUC(0-t) ([5]; plasma, suspension in 0.5% methylcellulose, read-out: AUC0-24 hr): 4920 ± 1220 ng·h/mL

From patent publication US9775832B2, “Pharmaceutical composition for oral administration” (ASTELLAS PHARMA INC., priority 2014, dated 2017)
